Reference: patent US4263427A, “Monensin urethane derivatives” (priority 1979, dated 1981)
In brackets after ≈: the same amount, converted by molar mass. Like-named read-outs stand apart in the source and are kept apart here.

Experiments:
[1] = system: Bacillus megaterium 8CU; assay: Minimum Inhibitory Concentration, agarwell diffusion assay (Table 6); assay type: cell-based; conditions: Priestia megaterium, 8CU, read-out: Minimum Inhibitory Concentration, Bacillus megaterium 8CU
Source text: (§1) (a) Lowest twofold dilution giving zone of inhibition in the agarwell
(§2) (b) NRRL collection number, all the rest ate ATCC numbers.

[2] = system: Bacillus sp. TA 27860; assay: as above; assay type: cell-based; conditions: Bacillus
Source text: as §1, §2

[3] = system: Sarcina lutca 9341; assay: as above; assay type: cell-based; conditions: Sarcina, 9341, read-out: Minimum Inhibitory Concentration, Sarcina lutca 9341
Source text: as §1, §2

[4] = system: Bacillus sp. E 27859; assay: as above; assay type: cell-based; conditions: Bacillus
Source text: as §1, §2

[5] = system: Paceilomyces variotl 25820; assay: as above; assay type: cell-based; conditions: read-out: Minimum Inhibitory Concentration, Paceilomyces variotl 25820
Source text: as §1, §2

[6] = system: Streptococcus cellulosac 3313; assay: as above; assay type: cell-based; conditions: Streptococcus, 3313, read-out: Minimum Inhibitory Concentration, Streptococcus cellulosac 3313
Source text: as §1, §2

[7] = system: MycoBacterium phiel 355; assay: as above; assay type: cell-based; conditions: Mycobacterium, 355, read-out: Minimum Inhibitory Concentration, MycoBacterium phiel 355
Source text: as §1, §2

[8] = system: Streptococcus faecium 8043; assay: as above; assay type: cell-based
Source text: as §1, §2

[9] = system: Staph. aureus 6538; assay: as above; assay type: cell-based; conditions: Staphylococcus aureus, 6538, read-out: Minimum Inhibitory Concentration, Staph. aureus 6538
Source text: as §1, §2

[10] = system: Bacillus subtilis 583; assay: as above; assay type: cell-based
Source text: as §1, §2

[11] = system: Treponema hyodysenteriae; assay: Activity against Treponema hyodysenteriae (MIC, blood agar plates); assay type: cell-based; conditions: Brachyspira hyodysenteriae, 48 h, 42° C., anaerobic
Source text: Testing for activity against Treponema hyodysenteriae, a cause of swine dysentery consisted of inoculation of blood agar plates containing a series of two or fourfold dilutions of the monensin urethane derivatives with tenfold dilutions of the T. hyodysenteriae strain.

[12] = system: rumen fluid; conditions: 50 ppm; control 100
[13] = Oral antihypertensive activity: blood pressure and heart rate (Table 9); assay type: in vivo; conditions: oral dose 10 mg/kg
Source text: Compounds of formula I, and their pharmaceutically acceptable salts are orally active as antihypertensive agents.

[14] = system: Eimeria tenella; assay: Anti-coccidial effect of monensin urethanes added to the feed of infected chickens (Table 7); assay type: in vivo; conditions: 125 ppm in feed; infected untreated control 3.0; less than 2.5 significant
Experimental: This test utilizes ten chickens per drug group. Ten chickens are employed as a weight control and ten chickens as an infected control. The drug is given 48 hours in advance of the infection. One gm. of the test drug is mixed in a mechanical mixer with a sufficient amount of chicken feed to result in the desired dosage. The infection consists of approximately 200,000 oocysts given orally by pipette. The tests lasts for eleven days and then the surviving birds are autopsied and examined for gross lesions in the ceca. The test birds are rated according to the number of survivors and the number of cecal lesions. The results are expressed as average degree of infection (A.D.I.). An average degree of infection of less than 2.5 is considered to be significant.

[15] = SP.TA27860, Bacillus sp. TA 27860, read-out: Minimum Inhibitory Concentration
[16] = SP.E27859, Bacillus sp. E 27859, read-out: Minimum Inhibitory Concentration
[17] = Enterococcus faecium, 8043, Streptococcus faecium 8043, read-out: Minimum Inhibitory Concentration
[18] = Bacillus subtilis, 583, Bacillus subtilis 583 (NRRL), read-out: Minimum Inhibitory Concentration

Compound | MIC [1] | MIC [2, 15] | MIC [3] | MIC [4, 16] | MIC [5] | MIC [6] | MIC [7] | MIC [8, 17] | MIC [9] | MIC [10, 18] | other results
CCC1(C2OC(C3OC(O)(COC(=O)Nc4ccc(C(C)=O)cc4)C(C)CC3C)CC2C)CCC(C2(C)CCC3(CC(O)C(C)C(C(C)C(OC)C(C)C(=O)O)O3)O2)O1 (centres unmarked) [Monensin A,4-(methylcarbonyl) phenylurethane] | 1.6 µg/mL (≈ 1.92 µM) | 0.8 µg/mL (≈ 0.961 µM) | 1.6 µg/mL (≈ 1.92 µM) | 0.2 µg/mL (≈ 0.24 µM) | 6.3 µg/mL (≈ 7.57 µM) | 3.1 µg/mL (≈ 3.73 µM) | 6.3 µg/mL (≈ 7.57 µM) | 0.8 µg/mL (≈ 0.961 µM) | 1.6 µg/mL (≈ 1.92 µM) | 1.6 µg/mL (≈ 1.92 µM) | 
CCC1(C2OC(C3OC(O)(COC(=O)Nc4ccc(OC)cc4)C(C)CC3C)CC2C)CCC(C2(C)CCC3(CC(O)C(C)C(C(C)C(OC)C(C)C(=O)O)O3)O2)O1 (centres unmarked) [Monensin A,4-methoxyphenylurethane] | 0.8 µg/mL (≈ 0.976 µM) |  | 1.6 µg/mL (≈ 1.95 µM) |  |  | 6.3 µg/mL (≈ 7.68 µM) | 1.6 µg/mL (≈ 1.95 µM) |  | 1.6 µg/mL (≈ 1.95 µM) |  | MIC ([2]; SP.TA27860, read-out: Minimum Inhibitory Concentration, Bacillus sp. TA 27860): 6.3 µg/mL (≈ 7.68 µM); MIC ([4]; SP.E27859, read-out: Minimum Inhibitory Concentration, Bacillus sp. E 27859): 0.1 µg/mL (≈ 0.122 µM); MIC ([8]; Enterococcus faecium, 8043, read-out: Minimum Inhibitory Concentration, Streptococcus faecium 8043): 0.4 µg/mL (≈ 0.488 µM); MIC ([10]; Bacillus subtilis, 583, read-out: Minimum Inhibitory Concentration, Bacillus subtilis 583 (NRRL)): 0.8 µg/mL (≈ 0.976 µM)
CCC1(C2OC(C3OC(O)(COC(=O)NC4CC4c4ccccc4)C(C)CC3C)CC2C)CCC(C2(C)CCC3(CC(O)C(C)C(C(C)C(OC)C(C)C(=O)O)O3)O2)O1 (centres unmarked) [Monensin A, 2-(phenyl)-cyclopropyl urethane] | 0.8 µg/mL (≈ 0.964 µM) | 0.4 µg/mL (≈ 0.482 µM) | 0.8 µg/mL (≈ 0.964 µM) | 0.4 µg/mL (≈ 0.482 µM) | 6.3 µg/mL (≈ 7.59 µM) | 12.5 µg/mL (≈ 15.1 µM) | 3.1 µg/mL (≈ 3.73 µM) | 0.2 µg/mL (≈ 0.241 µM) | 3.1 µg/mL (≈ 3.73 µM) | 0.8 µg/mL (≈ 0.964 µM) | MIC [11]: 0.4 µg/mL (≈ 0.482 µM)
CCC1(C2OC(C3OC(O)(COC(=O)NCCc4ccccc4)C(C)CC3C)CC2C)CCC(C2(C)CCC3(CC(O)C(C)C(C(C)C(OC)C(C)C(=O)O)O3)O2)O1 (centres unmarked) [Monensin A, 2-phenethylurethane] | 0.8 µg/mL (≈ 0.978 µM) | 1.6 µg/mL (≈ 1.96 µM) | 1.6 µg/mL (≈ 1.96 µM) | 0.8 µg/mL (≈ 0.978 µM) | 12.5 µg/mL (≈ 15.3 µM) | 12.5 µg/mL (≈ 15.3 µM) | 6.3 µg/mL (≈ 7.7 µM) | 0.4 µg/mL (≈ 0.489 µM) | 6.3 µg/mL (≈ 7.7 µM) | 1.6 µg/mL (≈ 1.96 µM) | Rate of Gas Production, Percent Production of Control Fermentations [12]: 101.7%; Total VFA, Percent Production of Control Fermentations [12]: 84.3%; Day of Maximum Change, Blood Pressure [13]: 5 days; Day of Maximum Change, Heart Rate [13]: 2 days; Maximum Change (%), Blood Pressure [13]: 15%; Maximum Change (%), Heart Rate [13]: 18%; Mean Blood Pressure at time of maximum effect ([13]; at time of maximum effect): 189 mm Hg; Mean Blood Pressure before treatment ([13]; before treatment): 223 mm Hg
CCC1(C2OC(C3OC(O)(COC(=O)Nc4ccc(I)cc4)C(C)CC3C)CC2C)CCC(C2(C)CCC3(CC(O)C(C)C(C(C)C(OC)C(C)C(=O)O)O3)O2)O1 (centres unmarked) [Monensin A, 4-iodophenylurethane] |  |  |  |  |  |  |  |  |  |  | Average Degree of Infected (A.D.I.) [14]: 0.1
CCC1(C2OC(C3OC(O)(COC(=O)Nc4ccc(Oc5ccccc5)cc4)C(C)CC3C)CC2C)CCC(C2(C)CCC3(CC(O)C(C)C(C(C)C(OC)C(C)C(=O)O)O3)O2)O1 (centres unmarked) [Monensin A, 4-phenoxyphenylurethane] | 0.4 µg/mL (≈ 0.453 µM) | 0.2 µg/mL (≈ 0.227 µM) | 0.4 µg/mL (≈ 0.453 µM) | 0.4 µg/mL (≈ 0.453 µM) | 0.8 µg/mL (≈ 0.907 µM) | 0.8 µg/mL (≈ 0.907 µM) | 1.6 µg/mL (≈ 1.81 µM) | 0.1 µg/mL (≈ 0.113 µM) | 0.4 µg/mL (≈ 0.453 µM) | 0.4 µg/mL (≈ 0.453 µM) | 
